test: Displacement of [3H](+)-MK-801 from N-methyl D-aspartate receptor in Rattus norvegicus (rat) forebrain membranes after 90 min; parameters: species or system Membrane

Row | Structure (SMILES) | IC50 [µM] | Ki [µM]
1 | NC12C3C4C5C3C1C5C42 (stereo not given) [Cubylamine] | 259 | 189
2 | NC1C2C3C4C1C1C2C3C41 (stereo not given) [Homocubyl-9-amine] | 843 | 615
3 | CC12CC3CC(C)(C1)CC(N)(C3)C2 [MEMANTINE] | 1.56 | 1.14
4 | NC1C2C3CC4C5CC(C1C53)C42 (stereo not given) [Trishomocubyl-4-amine] | 89 | 65
5 | NC1C2C3CC4C2C2C1C3C42 (stereo not given) [bishomocubyl-10-amine] | 152 | 111

Source: ChEMBL document CHEMBL3045367, “Preparation and testing of homocubyl amines as therapeutic NMDA receptor antagonists” (Med Chem Res, 2013)
